The values that follow come from US20170152258A9, “Substituted Pyridopyrazines as Syk Inhibitors” (HUTCHISON MEDIPHARMA LIMITED, priority 2012, published 2017).

Each structure is given as a SMILES string.

The test system of one assay is RBL-2H3 cells. Briefly: IgE-induced Beta-hexosaminidase secretion in RBL-2H3 cells. The format is cell-based. Conditions: DNP-BSA stimulation. As for the experimental part:
For the determination of IgE-induced Beta-hexosaminidase secretion, RBL-2H3 cells (SIBS) are seeded in 96 well plates at 4×10^4 cells per well and incubated in MEM media with 15% FBS and Glutamine ([…]) for 4 hours and sensitized with 0.5 ug/ml of SPE-7 overnight. Cells are washed 3 times with Tyrode's buffer and incubated in the presence or absence of various concentrations of the testing compound for 20 min at 37° C., 5% CO2. Cells are stimulated by adding 10 uL of DNP-BSA solution (150 ng/mL) to each well and incubating for 45 minutes at 37° C., 5% CO2. Then, 45 μL of the supernatant is taken and incubated with 100 μL of 1 mM 4-Nitrophenyl N-acetyl-β-D-glucosaminide (Sigma, Cat. No. N9376), which is diluted in 0.05 M citrate buffer (pH 4.5), for 1.5 hr at 37° C. The reactions are quenched by adding 185 μL of 0.05 M sodium carbonate buffer (pH 10.0). Plates are read at 405 nm on Multiskan (MK 3).

Another assay concerns the target Syk kinase (Homo sapiens, UniProt P43405). Nature of the assay: SYK Enzymatic Assay (Z-LYTE Tyr 2 peptide). The format is biochemical. Conditions: 8 concentrations 1 μM down to 0.0003 μM. Summed up:
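Z-LYTE format using Tyr 2 peptide. After the 1 h room-temperature kinase reaction, development reagent was added for 1 h, then stop reagent. Fluorescence was read at 445 and 520 nm. Compounds were tested at 8 concentrations, 1 μM down to 0.0003 μM (1:3 dilutions).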

Where [1] appears, read: Rattus norvegicus, RBL-2H3, IgE-induced Beta-hexosaminidase secretion.
[2] abbreviates: IgE-induced Beta-hexosaminidase secretion.

The term IC50 denotes the midpoint of a concentration-inhibition curve. Read a high IC50 as lower potency. Turning to `CNC(=O)N1CCO[C@H](COc2nc(-c3ccc(N(C)C)c(C)c3)cc3nccnc23)C1` [Compound 164], the values for the IC50 in the assay on RBL-2H3 cells (setting [1]) and on Syk kinase were 82 nM and 66 nM, respectively.

On to `Cn1ccc2ccc(-c3cc4nccnc4c(OC[C@@H]4CN(S(C)(=O)=O)CCO4)n3)cc21` [Compound 120], for which the IC50 with RBL-2H3 cells (setting [1]) is 41 nM; against Syk kinase it was 61 nM.

`NC(=O)N1CCO[C@H](COc2nc(-c3ccc(C4CCOCC4)cc3)cc3nccnc23)C1` [Compound 241, (S)-2-(((7-(4-(tetrahydro-2H-pyran-4-yl)phenyl)pyrido[3,4-b]pyrazin-5-yl)oxy)methyl)morpholine-4-carboxamide]: the 50% inhibitory concentration (IC50) worked out at 124 nM in the assay with RBL-2H3 cells (setting [1]) and 47 nM on Syk kinase.

Consider `CCC(=O)N1CCO[C@H](COc2nc(-c3ccc(N(C)C)c(C)c3)cc3nccnc23)C1` [Compound 202], for which the IC50 worked out at 90 nM with RBL-2H3 cells (setting [1]) and 26 nM at Syk kinase.

As for `CC(=O)N1CCO[C@H](COc2nc(-c3cc(C)c(N(C)C)c(C)c3)cc3nccnc23)C1` [Compound 161], the IC50 came to 108 nM with RBL-2H3 cells (setting [1]) and 151 nM on Syk kinase.

Take `CC(=O)N1CCN(c2ccc(-c3cc4nccnc4c(O[C@@H]4CCOC4)n3)cc2C)CC1` [Compound 205]: the half-maximal inhibitory concentration (IC50) in the assay with RBL-2H3 cells (setting [1]) stood at 19 nM; on Syk kinase it was 27 nM.

For the compound `CC(=O)N1CCO[C@H](COc2nc(-c3ccc4c(c3)CCN4C)cc3nccnc23)C1` [Compound 189], the IC50 is 78 nM with RBL-2H3 cells (setting [1]) and 61 nM against Syk kinase.

Regarding `CS(=O)(=O)N1CCO[C@H](COc2nc(-c3ccc4[nH]ncc4c3)cc3nccnc23)C1` [Compound 203], the 50% inhibitory concentration (IC50) with RBL-2H3 cells (setting [1]) is 107 nM; on Syk kinase it was 60 nM.

On to `CC(C)C(=O)N1CCO[C@H](COc2nc(-c3ccc(N(C)C)cc3)cc3nccnc23)C1` [Compound 68], for which the IC50 in the assay with RBL-2H3 cells (setting [1]) was 110 nM; against Syk kinase, 63 nM.

As for `Cn1ncc2cc(-c3cc4nccnc4c(OC[C@@H]4CN(S(C)(=O)=O)CCO4)n3)ccc21` [Compound 105], the 50% inhibitory concentration (IC50) with RBL-2H3 cells (setting [1]) was 77 nM; against Syk kinase it was 39 nM.

As to `CC(C)(C)C(O)c1ccc(-c2cc3nccnc3c(OC[C@@H]3CN(S(C)(=O)=O)CCO3)n2)cc1` (stereo partly drawn) [Compound 284], the IC50 in the assay on RBL-2H3 cells (setting [1]) was determined as 194 nM; at Syk kinase, 97 nM.

For `CNS(=O)(=O)N1CCO[C@H](COc2nc(-c3ccc(N(C)C)c(C)c3)cc3nccnc23)C1` [Compound 221], the IC50 is 38 nM in the assay on RBL-2H3 cells (setting [1]) and 44 nM against Syk kinase.

In the case of `CN1CCc2cc(-c3cc4nccnc4c(OC[C@@H]4CN(S(C)(=O)=O)CCO4)n3)ccc21` [Compound 214], the IC50 in the assay on RBL-2H3 cells (setting [1]) came to 20 nM; on Syk kinase, 16 nM.

In the case of `Cc1nccn1CCS(=O)(=O)N1CCO[C@H](COc2nc(-c3ccc(N(C)C)cc3)cc3nccnc23)C1` [Compound 101, (S)—N,N-dimethyl-4-(5-((4-(2-(2-methyl-1H-imidazol-1-yl)ethylsulfonyl)morpholin-2-yl)methoxy)pyrido[4,3-b]pyrazin-7-yl)aniline], the IC50 stood at 503 nM in the assay with RBL-2H3 cells (setting [1]) and 52 nM at Syk kinase.

Turning to `CC(O)c1ccc(-c2cc3nccnc3c(OC[C@@H]3CN(S(C)(=O)=O)CCO3)n2)cc1` (stereo partly drawn) [Compound 213, 1-(4-(5-(((S)-4-(methylsulfonyl)morpholin-2-yl)methoxy)pyrido[3,4-b]pyrazin-7-yl)phenyl)ethanol], the half-maximal inhibitory concentration (IC50) in the assay on RBL-2H3 cells (setting [1]) was 71 nM; at Syk kinase, 57 nM.

Regarding `O=C(C(F)F)N1CCO[C@H](COc2nc(-c3ccc(C4CCOCC4)cc3)cc3nccnc23)C1` [Compound 9], the IC50 with RBL-2H3 cells (setting [1]) turned out to be 127 nM; at Syk kinase, 98 nM.

Take `CC(F)(F)c1ccc(-c2cc3nccnc3c(OC[C@@H]3CN(S(C)(=O)=O)CCO3)n2)cc1` [Compound 230]: the IC50 in the assay on RBL-2H3 cells (setting [1]) worked out at 429 nM; on Syk kinase, 152 nM.

For the compound `CC(=O)N1CCO[C@H](COc2nc(-c3ccc(C(C)(C)C#N)cc3)cc3nccnc23)C1` [Compound 248], the IC50 with RBL-2H3 cells (setting [1]) stood at 54 nM; against Syk kinase, 88 nM.

For `CN1CCOC(COc2nc(-c3ccc(C(C)(C)O)cc3)cc3nccnc23)C1=O` (stereo not drawn) [Compound 316], the IC50 with RBL-2H3 cells (setting [1]) was 113 nM; at Syk kinase, 115 nM.

Consider `CNc1ccc(-c2cc3nccnc3c(OC[C@@H]3CN(S(C)(=O)=O)CCO3)n2)cc1` [Compound 36], for which the IC50 in the assay on RBL-2H3 cells (setting [1]) was determined as 97 nM; against Syk kinase, 55 nM.

Consider `CN1CCN(c2ccc(-c3cc4nccnc4c(OC[C@@H]4CNC(=O)C4)n3)cc2)CC1` [Compound 225], for which the results for the IC50 in the assay on RBL-2H3 cells (setting [1]) and at Syk kinase were 302 nM and 47 nM, respectively.

Take `CC(C)(C(N)=O)c1ccc(-c2cc3nccnc3c(OC[C@@H]3CN(S(C)(=O)=O)CCO3)n2)cc1` [Compound 231]: the results for the IC50 in the assay on RBL-2H3 cells (setting [1]) and against Syk kinase were 87 nM and 42 nM, respectively.

In the case of `N#CC1(c2ccc(-c3cc4nccnc4c(OC[C@@H]4CN(S(N)(=O)=O)CCO4)n3)cc2)CCC1` [Compound 294], the IC50 in the assay with RBL-2H3 cells (setting [2]) worked out at 132 nM; in the assay on RBL-2H3 cells (setting [1]), 218 nM; on Syk kinase, 51 nM.

For the compound `c1cnc2c(O[C@@H]3CCOC3)nc(-c3ccc(C4CCNCC4)cc3)cc2n1` [Compound 190], the IC50 in the assay on RBL-2H3 cells (setting [1]) came out at 645 nM; against Syk kinase it was 50 nM.

For `CS(=O)(=O)N1CCO[C@H](COc2nc(-c3ccc(N4CCN(CCO)CC4)cc3)cc3nccnc23)C1` [Compound 27], the IC50 worked out at 222 nM in the assay with RBL-2H3 cells (setting [1]) and 21 nM against Syk kinase.

With `CC(=O)N1CCC(c2ccc(-c3cc4nccnc4c(OC[C@@H]4CN(S(C)(=O)=O)CCO4)n3)cc2)CC1` [Compound 33], the results for the IC50 with RBL-2H3 cells (setting [1]) and on Syk kinase were 64 nM and 27 nM, respectively.

As for `CS(=O)(=O)N1CCN(c2ccc(-c3cc4nccnc4c(O[C@@H]4CCOC4)n3)cc2)CC1` [Compound 153], the values for the IC50 in the assay on RBL-2H3 cells (setting [1]) and at Syk kinase were 26 nM and 33 nM, respectively.

Consider `COc1ccc(-c2cc3nccnc3c(OC[C@@H]3CN(S(C)(=O)=O)CCO3)n2)cc1` [Compound 38], for which the values for the IC50 in the assay on RBL-2H3 cells (setting [1]) and against Syk kinase were 278 nM and 83 nM, respectively.

In the case of `CN(C)c1ccc(-c2cc3nccnc3c(O[C@@H]3CCOC3)n2)cc1` [Compound 123], the half-maximal inhibitory concentration (IC50) turned out to be 35 nM in the assay on RBL-2H3 cells (setting [1]) and 30 nM on Syk kinase.

Regarding `CC(C)(O)Cc1ccc(-c2cc3nccnc3c(OC[C@@H]3CN(S(C)(=O)=O)CCO3)n2)cc1` [Compound 273], the results for the IC50 with RBL-2H3 cells (setting [1]) and at Syk kinase were 176 nM and 85 nM, respectively.

As for `CC(=O)N1CCO[C@H](COc2nc(-c3ccc(N4CCN(CCO)CC4)cc3)cc3nccnc23)C1` [Compound 49], the IC50 with RBL-2H3 cells (setting [1]) is 315 nM; against Syk kinase, 87 nM.

`CN(C)c1ccc(-c2cc3nccnc3c(OC3CCCOC3)n2)cc1` (stereo not drawn) [Compound 127]: the IC50 in the assay on RBL-2H3 cells (setting [1]) is 77 nM; against Syk kinase, 58 nM.

Take `CS(=O)(=O)N1CCO[C@H](COc2nc(-c3ccc(C4(O)CCC4)cc3)cc3nccnc23)C1` [Compound 308]: the IC50 in the assay with RBL-2H3 cells (setting [1]) stood at 97 nM; on Syk kinase, 35 nM.

As to `CN(C)c1ccc(-c2cc3nccnc3c(OC[C@@H]3CN(C(=O)c4cnn(C)c4)CCO3)n2)cc1` [Compound 87], the values for the IC50 with RBL-2H3 cells (setting [1]) and against Syk kinase were 200 nM and 60 nM, respectively.

As to `COCCS(=O)(=O)N1CCO[C@H](COc2nc(-c3ccc(N4CCOCC4)cc3)cc3nccnc23)C1` [Compound 66], the IC50 amounted to 230 nM in the assay with RBL-2H3 cells (setting [1]) and 58 nM against Syk kinase.

As for `CC(C)(C)c1ccc(-c2cc3nccnc3c(OC[C@@H]3CN(S(C)(=O)=O)CCO3)n2)cc1` [Compound 256], the IC50 is 92 nM in the assay on RBL-2H3 cells (setting [1]) and 36 nM at Syk kinase.

Consider `CC(=O)N1CCC(c2ccc(-c3cc4nccnc4c(O[C@@H]4CCOC4)n3)cc2)CC1` [Compound 156], for which the IC50 with RBL-2H3 cells (setting [1]) is 32 nM; on Syk kinase, 38 nM.

On to `CC(=O)N1CCN(c2ccc(-c3cc4nccnc4c(O[C@@H]4CCOC4)n3)cc2)CC1` [Compound 152], for which the IC50 with RBL-2H3 cells (setting [1]) is 48 nM; on Syk kinase, 33 nM.

On to `CN(C)c1ccc(-c2cc3nccnc3c(OC[C@@H]3CN(C(=O)[C@H]4CC[C@H](O)CC4)CCO3)n2)cc1` [Compound 74], for which the values for the IC50 with RBL-2H3 cells (setting [1]) and against Syk kinase were 186 nM and 127 nM, respectively.

As for `CC(C)(O)C1CCN(c2ccc(-c3cc4nccnc4c(OC[C@@H]4CN(S(C)(=O)=O)CCO4)n3)cc2)CC1` [Compound 22], the IC50 with RBL-2H3 cells (setting [1]) was found to be 73 nM; against Syk kinase, 16 nM.

Consider `CN(C)c1ccc(-c2cc3nccnc3c(OC[C@@H]3CN(C(=O)CC#N)CCO3)n2)cc1` [Compound 76], for which the IC50 in the assay with RBL-2H3 cells (setting [1]) is 88 nM; on Syk kinase, 40 nM.

For the compound `CS(=O)(=O)N1CCO[C@H](COc2nc(-c3ccc4ncccc4c3)cc3nccnc23)C1` [Compound 111], the IC50 with RBL-2H3 cells (setting [1]) is 119 nM; against Syk kinase, 117 nM.

In the case of `CN1CCCc2cc(-c3cc4nccnc4c(OC[C@@H]4CN(S(C)(=O)=O)CCO4)n3)ccc21` [Compound 207], the half-inhibitory concentration (IC50) with RBL-2H3 cells (setting [2]) is 14 nM; in the assay on RBL-2H3 cells (setting [1]), 8 nM; at Syk kinase, 11 nM.

Regarding `CN(C)c1ccc(-c2cc3nccnc3c(OC[C@@H]3CN(C(=O)N4CCC4)CCO3)n2)cc1` [Compound 199, (S)-azetidin-1-yl(2-(((7-(4-(dimethylamino)phenyl)pyrido[3,4-b]pyrazin-5-yl)oxy)methyl)morpholino)methanone], the IC50 stood at 211 nM in the assay on RBL-2H3 cells (setting [1]) and 88 nM against Syk kinase.
